Measured values as given in patent US20230390309A1, “TETRACYCLINE DERIVATIVES FOR TREATING NEURODEGENERATIVE OR NEUROINFLAMMATORY DISEASES” (INSTITUT DU CERVEAU ET DE LA MOELLE EPINIERE, priority 2020, published 2023).
≈ marks a conversion by molar mass, not a printed value. Like-named read-outs stand apart in the source and are kept apart here.

Tests used:
E. coli DH5α = assay: Disc diffusion assay to assess antimicrobial activities (inhibition of bacterial growth); type: cell-based; details: read-out: Minimal inhibitory concentration
Protocol: The antibacterial activities of test compounds were evaluated using the disc diffusion method (Kavanagh, Academic Press, Inc., New York, 1963, 125-140; Pomares et al, J Bacteriol. 2008, 30 190, 4328-4334). Briefly, filter-paper discs impregnated with 10 μl of two-fold serial dilutions of test compounds were placed onto LB solid medium Petri dishes. Then, aliquots (50 μl) of an E. coli DH5α culture in stationary phase were mixed with 3 ml of top agar (0.7% agar) and overlaid onto the plates. After overnight incubation at 37° C., the plates were examined for different degrees of inhibition. The antibacterial efficacy of a test compound was estimated by the Minimum Inhibitory Concentration (MIC) assay that determines the lowest concentration inhibiting visible growth of bacteria. Each test was performed in duplicate vs. the reference compound, doxycycline (“DOX”).

[1] = target: human recombinant monomeric α-Synuclein (Homo sapiens, UniProt P37840); assay: Thioflavin-T fluorescence assay of α-Synuclein amyloid aggregation; type: biochemical; details: test compound 100 μM; 70 μM α-Synuclein; after 144 hours of shaking; percent of optimal response without tetracycline
Protocol: Aggregation studies were performed at 37° C. on samples containing 70 μM human recombinant monomeric α-Synuclein that were submitted to constant orbital agitation (Thermomixer Comfort, Eppendorf) at 600 rpm in the absence or in the presence of test compounds, at 100 μM. The formation of α-Synuclein aggregated species was monitored using the fluorescence probe Thioflavin-T (LeVine, Methods Enzymol. 1999, 309, 274-284; González-Lizárraga, et al. Sci Rep. 2017, 7, 41755), at a concentration of 25 μM. Changes in emission fluorescence were measured after 144 hrs of continuous shaking, at an excitation wavelength of 450 nm using a Horiba FluoroMax 4 spectrometer.

[2] = tested on: dopaminergic midbrain neurons (TH+); assay: Neuroprotection of TH+ dopaminergic neurons in primary mouse midbrain cultures (spontaneous oxidative stress); type: cell-based; details: Neuron, 168 h, cultured for 7 days, estimated graphically, read-out: EC50 (concentration protecting 50% of TH+ neurons)
Protocol: The inventors have further shown that compounds 1-H and 1-Me exert robust and concentration-dependent neuroprotective effects in a cell model in which the dopaminergic midbrain neurons, vulnerable in Parkinson's disease, degenerate further to a spontaneous oxidative stress of low intensity resulting from the presence of catalytic iron in the culture medium (Guerreiro et al, J Neurochem. 2009; 109(4):1118-28; Rousseau et al, Mol Pharmacol. 2013; 84(6):888-98).
Cultures were carried out using embryos of Swiss mice (Janvier LABS, Le Genest St. Isles, 30 France), collected at 13.5 days of gestation. The experimental procedures were performed in accordance with Directive 2010/63/EU of the Council of the European Union, using a protocol validated by the Charles Darwin ethics committee no. 5. The protocol is based on techniques reported previously (Rousseau et al, 2013, supra; Lavaur et al, J Neurochem. 2017; 142(1):14-28), using an additional step of trypsinization with an EDTA (2mM)-trypsin (0.05%) solution to facilitate the dissociation of brain tissue. The cells in suspension are distributed in 48-well multi-well dishes (Nunc; ThermoFisher Scientific), at a density of 50-80. 10^3 cells/cm^2, using Dulbecco's Modified Eagle's Medium/Nutrient Mixture F-12 Ham (Sigma-Aldrich), supplemented with 10% fetal calf serum. After 2 hours, the cultures are washed completely and placed in the presence of the same medium containing only 20 μg/ml of bovine insulin. The cultures are also treated with cytarabine (1.5 μM) on the first day in vitro and on the following day to reduce the number of glial cells in the cultures.
These cultures contain between 1 to 2% of dopaminergic neurons. […] Assessment of the number of dopaminergic neurons is done by counting TH^+ neurons with a Nikon Eclipse Ti-U inverted microscope.
The reference molecule used to prevent the loss of dopaminergic neurons is apotransferrin (APO; Sigma Aldrich; 100 μg/ml), a protein that chelates ferric iron in culture medium.

[3] = E. coli DH5α, disc diffusion, overnight incubation at 37° C., assayed twice
[4] = Escherichia coli, E. coli DH5α, disc diffusion, overnight incubation at 37° C., assayed twice

SMILES: NC(=O)C1=C(O)C[C@@H]2C[C@H]3C(=C(O)C2C1=O)C(=O)c1c(O)ccc(Cl)c1[C@H]3O (stereo partly drawn) [1-H, 7-chloro-3,6,10,12-tetrahydroxy-1,11-dioxo-1,4,4α,5,5α,6,11,12α-octahydrotetracene-2-carboxamide]
- MIC (E. coli DH5α; [3]): >2000 µM
- MIC (E. coli DH5α; Escherichia coli): > 2000 µM
- residual Thioflavin-T fluorescence level [1]: 1.5%
- EC50 [2]: 810 nM

SMILES: C[C@@]1(O)c2c(Cl)ccc(O)c2C(=O)C2=C(O)C3C(=O)C(C(N)=O)=C(O)C[C@@H]3C[C@@H]21 (stereo partly drawn) [1-Me, 7-chloro-3,6,10,12-tetrahydroxy-6-methyl-1,11-dioxo-1,4,4α,5,5α, 6,11,12α-octahydrotetracene-2-carboxamide]
- MIC (E. coli DH5α; [3]): >2000 µM
- MIC (E. coli DH5α; [4]): > 2000 µM
- residual Thioflavin-T fluorescence level [1]: 13.5%
- EC50 [2]: 2010 nM

SMILES: C[C@H]1c2cccc(O)c2C(=O)C2=C(O)[C@]3(O)C(=O)C(C(N)=O)=C(O)[C@@H](N(C)C)[C@@H]3[C@@H](O)[C@@H]21 [DOX, doxycycline, reference compound]
- MIC (E. coli DH5α; [4]): 62.5 µM (≈ 27.8 µg/mL)
- residual Thioflavin-T fluorescence level [1]: 21.1%
- EC50 [2]: 5200 nM
